ChEMBL document CHEMBL1123701, “Synthesis and quantitative structure-activity relationship analysis of N-triiodoallyl- and N-iodopropargylazoles. New antifungal agents” (1987)
Converted amounts (≈) assume the structure as drawn.

What was measured:
Aspergillus fumigatus = assay: Antifungal activity against Aspergillus fumigatus Saito strain; type: functional
Candida albicans = assay: Antifungal activity against Candida albicans C-A-24 strain; type: functional
Cryptococcus neoformans = assay: Antifungal activity against Cryptococcus neoformans Cr-1 strain; type: functional
[1] = test system: Trichophyton interdigitale; assay: Antifungal activity towards Trichophyton interdigitale; type: functional
Trichophyton benhamiae = assay: Antifungal activity towards Trichophyton mentagrophytes 530324 strain; type: functional, Arthroderma benhamiae

| Compound | MIC (Aspergillus fumigatus) [µg/mL] | MIC (Candida albicans) [µg/mL] | MIC (Cryptococcus neoformans) [µg/mL] | MIC [1] [µg/mL] | MIC (Trichophyton benhamiae) [µg/mL] |
| --- | --- | --- | --- | --- | --- |
| IC#CCn1nnc(-c2ccccc2)n1 | 0.2 (≈ 0.645 µM) | 0.78 (≈ 2.52 µM) | 1.56 (≈ 5.03 µM) | 0.39 (≈ 1.26 µM) | 0.2 (≈ 0.645 µM) |
| O=C(O)c1ccc(-c2nnn(CC#CI)n2)cc1 | > 100 | > 100 | 100 (≈ 282 µM) | 6.25 (≈ 17.7 µM) | 25 (≈ 70.6 µM) |
| Fc1ccc(-c2nnn(CC(I)=C(I)I)n2)cc1 | > 100 | > 100 | > 100 | 0.78 (≈ 1.34 µM) | 0.1 (≈ 0.172 µM) |
| Clc1ccccc1C(c1ccccc1)(c1ccccc1)n1ccnc1 [CLOTRIMAZOLE] | 1.56 (≈ 4.52 µM) | 6.25 (≈ 18.1 µM) | 1.56 (≈ 4.52 µM) | 0.39 (≈ 1.13 µM) | 0.39 (≈ 1.13 µM) |
| Clc1cc(Cl)c(OCC#CI)cc1Cl [HALOPROGIN] | 3.13 (≈ 8.66 µM) | 3.13 (≈ 8.66 µM) | 1.56 (≈ 4.32 µM) | 0.39 (≈ 1.08 µM) | 0.39 (≈ 1.08 µM) |
